# Experiments:
# Assay in all cases: In vitro antibiotic activity, agar dilution method (Mueller-Hinton agar, NCCLS)
# Type in all cases: cell-based
# [1] = tested on: P. aeruginosa PAO1; conditions: Pseudomonas aeruginosa, PAO1; agar dilution, Mueller-Hinton agar; read-out: MIC for P. aeruginosa PAO1
# Method: (§1) To measure the antibiotic activity of the compounds prepared by Examples, antibiotic activity test in vitro was performed by agar dilution method using Mueller-Hinton agar according to the NCCLS (National Committee for Clinical Laboratory Standards. 2000. Methods for dilution antimicrobial susceptibility tests for bacteria that grow aerobiocally. Approved standard, NCCLS document M7-M5, 5th ed, vol 20, no 2. National Committee for Clinical Laboratory Standards, Wayne, Pa.). The test strain was Escherichia coli (ATCC 25922), Klebsiella pneumonia (ATCC 29665) and Pseudomonas aeriginosa (PAO1).
# [2] = tested on: K. pneumoniae ATCC 29665; conditions: Klebsiella pneumoniae, ATCC29665; agar dilution, Mueller-Hinton agar; read-out: MIC for K. pneumoniae ATCC 29665
# Method: as §1
# [3] = tested on: E. coli ATCC 25922; conditions: Escherichia coli, ATCC25922; agar dilution, Mueller-Hinton agar; read-out: MIC for E. coli ATCC 25922
# Method: as §1
Structure (SMILES),MIC [1],MIC [2],MIC [3]
"CC(CCN1CC=C(c2ccc(C#CC#CCCCO)cc2)CC1)(C(=O)NO)S(C)(=O)=O (stereo not drawn) [Example 46, N-hydroxy-4-(4-(4-(7-hydroxyhepta-1,3-diyn-1-yl)phenyl)-3,6-dihydropyridin-1(2H)-yl)-2-methyl-2-(methylsulfonyl)butanamide]",1 to 8 µg/mL,1 to 8 µg/mL,< 1 µg/mL
"CC(CCN1CC=C(c2ccc(C#CC#CCCO)cc2)CC1)(C(=O)NO)S(C)(=O)=O (stereo not drawn) [Example 47, N-hydroxy-4-(4-(4-(6-hydroxyhexa-1,3-diyn-1-yl)phenyl)-3,6-dihydropyridin-1(2H)-yl)-2-methyl-2-(methylsulfonyl)butanamide]",< 1 µg/mL,1 to 8 µg/mL,< 1 µg/mL
"CC(CCN1CC=C(c2ccc(C#CC#CCO)cc2)CC1)(C(=O)NO)S(C)(=O)=O (stereo not drawn) [Example 48, N-hydroxy-4-(4-(4-(5-hydroxypenta-1,3-diyn-1-yl)phenyl)-3,6-dihydropyridin-1(2H)-yl)-2-methyl-2-(methylsulfonyl)butanamide]",< 1 µg/mL,1 to 8 µg/mL,< 1 µg/mL
"CN(C)CC#CC#Cc1ccc(C2=CCN(CCC(C)(C(=O)NO)S(C)(=O)=O)CC2)cc1 (stereo not drawn) [Example 49, 4-(4-(4-(5-(dimethylamino)penta-1,3-diyn-1-yl)phenyl)-3,6-dihydropyridin-1(2H)-yl)-N-hydroxy-2-methyl-2-(methylsulfonyl)butanamide]",< 1 µg/mL,1 to 8 µg/mL,< 1 µg/mL
"COCC#CC#Cc1ccc(C2=CCN(CCC(C)(C(=O)NO)S(C)(=O)=O)CC2)cc1 (stereo not drawn) [Example 50, N-hydroxy-4-(4-(4-(5-methoxypenta-1,3-diyn-1-yl)phenyl)-3,6-dihydropyridin-1(2H)-yl)-2-methyl-2-(methylsulfonyl)butanamide]",< 1 µg/mL,1 to 8 µg/mL,< 1 µg/mL
"CC(CCN1CC=C(c2ccc(C#CC#Cc3ccccc3)cc2)CC1)(C(=O)NO)S(C)(=O)=O (stereo not drawn) [Example 51, N-hydroxy-2-methyl-2-(methylsulfonyl)-4-(4-(4-(phenylbuta-1,3-diyn-1-yl)phenyl)-3,6-dihydropyridin-1(2H)-yl)butanamide]",> 16 µg/mL,> 16 µg/mL,> 16 µg/mL
"CC(CCN1CC=C(C#Cc2ccncc2)CC1)(C(=O)NO)S(C)(=O)=O (stereo not drawn) [Example 52, N-hydroxy-2-methyl-2-(methylsulfonyl)-4-(4-(pyridin-4-ylethynyl)-3,6-dihydropyridin-1(2H)-yl)butanamide]",> 16 µg/mL,> 16 µg/mL,8 to 16 µg/mL
"CC(CCN1CC=C(C#Cc2ccc(Br)cc2)CC1)(C(=O)NO)S(C)(=O)=O (stereo not drawn) [Example 53, 4-(4-((4-bromophenyl)ethynyl)-3,6-dihydropyridin-1(2H)-yl)-N-hydroxy-2-methyl-2-(methylsulfonyl)butanamide]",> 16 µg/mL,1 to 8 µg/mL,1 to 8 µg/mL
"CC(CCN1CC=C(C#CC#CCCCO)CC1)(C(=O)NO)S(C)(=O)=O (stereo not drawn) [Example 54, N-hydroxy-4-(4-(7-hydroxyhepta-1,3-diyn-1-yl)-3,6-dihydropyridin-1(2H)-yl)-2-methyl-2-(methylsulfonyl)butanamide]",> 16 µg/mL,> 16 µg/mL,8 to 16 µg/mL
"CC(CCN1CC=C(c2ccc(-c3ccncc3)cc2)CC1)(C(=O)NO)S(C)(=O)=O (stereo not drawn) [Example 55, N-hydroxy-2-methyl-2-(methylsulfonyl)-4-(4-(4-(pyridin-4-yl)phenyl)-3,6-dihydropyridin-1(2H)-yl)butanamide]",1 to 8 µg/mL,1 to 8 µg/mL,1 to 8 µg/mL
"CC(CCN1CC=C(c2ccc(-c3ccccc3)cc2)CC1)(C(=O)NO)S(C)(=O)=O (stereo not drawn) [Example 56, 4-(4-([1,1′-biphenyl]-4-yl)-3,6-dihydropyridin-1(2H)-yl)-N-hydroxy-2-methyl-2-(methylsulfonyl)butanamide]",8 to 16 µg/mL,< 1 µg/mL,< 1 µg/mL
"CC(CCN1CC=C(c2ccc(-c3ccc(Cl)cc3)cc2)CC1)(C(=O)NO)S(C)(=O)=O (stereo not drawn) [Example 57, 4-(4-(4′-chloro-[1,1′-biphenyl]-4-yl)-3,6-dihydropyridin-1(2H)-yl)-N-hydroxy-2-methyl-2-(methylsulfonyl)butanamide]",> 16 µg/mL,> 16 µg/mL,1 to 8 µg/mL
"CC(CCN1CC=C(c2ccc(-c3ccc(F)cc3)cc2)CC1)(C(=O)NO)S(C)(=O)=O (stereo not drawn) [Example 58, 4-(4-(4′-fluoro-[1,1′-biphenyl]-4-yl)-3,6-dihydropyridin-1(2H)-yl)-N-hydroxy-2-methyl-2-(methylsulfonyl)butanamide]",> 16 µg/mL,1 to 8 µg/mL,< 1 µg/mL
"CC(CCN1CC=C(c2ccc(-c3ccc(O)cc3)cc2)CC1)(C(=O)NO)S(C)(=O)=O (stereo not drawn) [Example 59, N-hydroxy-4-(4-(4′-hydroxy-[1,1′-biphenyl]-4-yl)-3,6-dihydropyridin-1(2H)-yl)-2-methyl-2-(methylsulfonyl)butanamide]",8 to 16 µg/mL,8 to 16 µg/mL,< 1 µg/mL
"COc1ccc(-c2ccc(C3=CCN(CCC(C)(C(=O)NO)S(C)(=O)=O)CC3)cc2)cc1F (stereo not drawn) [Example 60, 4-(4-(3′-fluoro-4′-methoxy-[1,1′-biphenyl]-4-yl)-3,6-dihydropyridin-1(2H)-yl)-N-hydroxy-2-methyl-2-(methylsulfonyl)butanamide]",> 16 µg/mL,8 to 16 µg/mL,< 1 µg/mL
"CC(CCN1CC=C(c2ccc(-c3cccnc3)cc2)CC1)(C(=O)NO)S(C)(=O)=O (stereo not drawn) [Example 61, N-hydroxy-2-methyl-2-(methylsulfonyl)-4-(4-(4-(pyridin-3-yl)phenyl)-3,6-dihydropyridin-1(2H)-yl)butanamide]",1 to 8 µg/mL,> 16 µg/mL,1 to 8 µg/mL
"CC(CCN1CC=C(c2ccc(-c3ccc(F)nc3)cc2)CC1)(C(=O)NO)S(C)(=O)=O (stereo not drawn) [Example 62, 4-(4-(4-(6-fluoropyridin-3-yl)phenyl)-3,6-dihydropyridin-1(2H)-yl)-N-hydroxy-2-methyl-2-(methylsulfonyl)butanamide]",1 to 8 µg/mL,1 to 8 µg/mL,< 1 µg/mL
"CC(CCN1CC=C(c2ccc(-c3ccoc3)cc2)CC1)(C(=O)NO)S(C)(=O)=O (stereo not drawn) [Example 63, 4-(4-(4-(furan-3-yl)phenyl)-3,6-dihydropyridin-1(2H)-yl)-N-hydroxy-2-methyl-2-(methylsulfonyl)butanamide]",8 to 16 µg/mL,< 1 µg/mL,< 1 µg/mL
"CC(CCN1CC=C(c2ccc(-c3ccc(S(C)(=O)=O)cc3)cc2)CC1)(C(=O)NO)S(C)(=O)=O (stereo not drawn) [Example 64, N-hydroxy-2-methyl-2-(methylsulfonyl)-4-(4-(4′-(methylsulfonyl)-[1,1′-biphenyl]-4-yl)-3,6-dihydropyridin-1(2H)-yl)butanamide]",1 to 8 µg/mL,1 to 8 µg/mL,< 1 µg/mL
"CC(CCN1CC=C(c2ccc(-c3ccc(CO)cc3)cc2)CC1)(C(=O)NO)S(C)(=O)=O (stereo not drawn) [Example 65, N-hydroxy-4-(4-(4′-(hydroxymethyl)-[1,1′-biphenyl]-4-yl)-3,6-dihydropyridin-1(2H)-yl)-2-methyl-2-(methylsulfonyl)butanamide]",> 16 µg/mL,8 to 16 µg/mL,< 1 µg/mL
"CC(CCN1CC=C(c2ccc(-c3ccc(C#N)cc3)cc2)CC1)(C(=O)NO)S(C)(=O)=O (stereo not drawn) [Example 66, 4-(4-(4′-cyano-[1,1′-biphenyl]-4-yl)-3,6-dihydropyridin-1(2H)-yl)-N-hydroxy-2-methyl-2-(methylsulfonyl)butanamide]",> 16 µg/mL,1 to 8 µg/mL,< 1 µg/mL
"CCCCCc1ccc(-c2ccc(C3=CCN(CCC(C)(C(=O)NO)S(C)(=O)=O)CC3)cc2)cc1 (stereo not drawn) [Example 67, N-hydroxy-2-methyl-2-(methylsulfonyl)-4-(4-(4′-pentyl-[1,1′-biphenyl]-4-yl)-3,6-dihydropyridin-1(2H)-yl)butanamide]",> 16 µg/mL,> 16 µg/mL,8 to 16 µg/mL
"CC(CCN1CC=C(c2ccc(-c3ccc(S(=O)(=O)N4CCC4)cc3)cc2)CC1)(C(=O)NO)S(C)(=O)=O (stereo not drawn) [Example 68, 4-(4-(4′-(azetidin-1-ylsulfonyl)-[1,1′-biphenyl]-4-yl)-3,6-dihydropyridin-1(2H)-yl)-N-hydroxy-2-methyl-2-(methylsulfonyl)butanamide]",1 to 8 µg/mL,1 to 8 µg/mL,< 1 µg/mL
"CC(CCN1CC=C(c2ccc(-c3ccc(OS(C)(=O)=O)cc3)cc2)CC1)(C(=O)NO)S(C)(=O)=O (stereo not drawn) [Example 69, 4′-(1-(4-(hydroxyamino)-3-methyl-3-(methylsulfonyl)-4-oxobutyl)-1,2,3,6-tetrahydropyridin-4-yl)-[1,1′-biphenyl]-4-yl methanesulfonate]",8 to 16 µg/mL,< 1 µg/mL,< 1 µg/mL
"CC(CCN1CC=C(c2ccc(-c3ccsc3)cc2)CC1)(C(=O)NO)S(C)(=O)=O (stereo not drawn) [Example 70, N-hydroxy-2-methyl-2-(methylsulfonyl)-4-(4-(4-(thiophen-3-yl)phenyl)-3,6-dihydropyridin-1(2H)-yl)butanamide]",> 16 µg/mL,< 1 µg/mL,< 1 µg/mL
"COc1ccsc1-c1ccc(C2=CCN(CCC(C)(C(=O)NO)S(C)(=O)=O)CC2)cc1.Cl (stereo not drawn) [Example 71, N-hydroxy-4-(4-(4-(3-methoxythiophen-2-yl)phenyl)-3,6-dihydropyridin-1(2H)-yl)-2-methyl-2-(methylsulfonyl)butanamide hydrochloride]",> 16 µg/mL,< 1 µg/mL,< 1 µg/mL

# — US10160724B2, “Tetrahydropyridine derivatives and their use as antibacterial agents” (Dong-A St Co., Ltd., priority 2016, dated 2018)
